# Laboratory results published in PubChem BioAssay AID330 (DTP/NCI, 2004).
# “And” between values parts separate entries of the source, which are not always exact repeats. Identical values can stand only once. Inconclusive results and toxic doses are left out.
# System: P388 leukemia ip, CD2F1 mice, survival T/C
# Assay: NCI In Vivo Anticancer Drug Screen. Data for tumor model P388 Leukemia (intraperitoneal) in CD2F1 (CDF1) mice
# Conditions: endpoint: median survival time, higher = longer survival
# Procedure, shortened: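 Mice carrying the transplanted tumor received test compound or vehicle. Survival was recorded in each group, and the value is the treated-group measurement divided by that of the vehicle-treated control group.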
# [1] = dose: 25.0 mg/kg/injection, schedule: Q01DX009 (ip), vehicle: saline with Tween-80
# [2] = dose: 50.0 mg/kg/injection, schedule: Q01DX009 (ip), vehicle: saline with Tween-80
# [3] = dose: 50.0 mg/kg/injection, schedule: Q01DX009 (ip), vehicle: saline
# [4] = dose: 50.0 mg/kg/injection, schedule: Q01DX009 (ip), vehicle: suspension in saline
# [5] = dose: 100.0 mg/kg/injection, schedule: Q01DX009 (ip), vehicle: saline with Tween-80
# [6] = dose: 100.0 mg/kg/injection, schedule: Q01DX009 (ip), vehicle: saline
# [7] = dose: 100.0 mg/kg/injection, schedule: Q01DX009 (ip), vehicle: suspension in saline
# [8] = dose: 200.0 mg/kg/injection, schedule: Q01DX009 (ip), vehicle: saline
# [9] = dose: 100.0 mg/kg/injection, schedule: Q04DX003 (ip), vehicle: saline with Tween-80
# [10] = dose: 50.0 mg/kg/injection, schedule: Q01DX005 (ip), vehicle: saline with Tween-80
# [11] = dose: 100.0 mg/kg/injection, schedule: Q01DX005 (ip), vehicle: saline with Tween-80
# [12] = dose: 200.0 mg/kg/injection, schedule: Q01DX005 (ip), vehicle: saline with Tween-80
# [13] = dose: 12.5 mg/kg/injection, schedule: Q01DX009 (ip), vehicle: saline with Tween-80
# [14] = dose: 25.0 mg/kg/injection, schedule: Q04DX003 (ip), vehicle: saline with Tween-80
# [15] = dose: 50.0 mg/kg/injection, schedule: Q04DX003 (ip), vehicle: saline with Tween-80
# [16] = dose: 60.0 mg/kg/injection, schedule: Q01DX005 (ip), vehicle: Klucel (hydroxypropylcellulose) (HPC)
# [17] = dose: 120.0 mg/kg/injection, schedule: Q01DX005 (ip), vehicle: Klucel (hydroxypropylcellulose) (HPC)
# [18] = dose: 240.0 mg/kg/injection, schedule: Q01DX005 (ip), vehicle: Klucel (hydroxypropylcellulose) (HPC)
# [19] = dose: 3.12 mg/kg/injection, schedule: Q01DX009 (ip), vehicle: Klucel (hydroxypropylcellulose) (HPC)
# [20] = dose: 50.0 mg/kg/injection, schedule: Q01DX005 (ip), vehicle: Klucel (hydroxypropylcellulose) (HPC)
# [21] = dose: 100.0 mg/kg/injection, schedule: Q01DX005 (ip), vehicle: Klucel (hydroxypropylcellulose) (HPC)
# [22] = dose: 200.0 mg/kg/injection, schedule: Q01DX005 (ip), vehicle: Klucel (hydroxypropylcellulose) (HPC)
# [23] = dose: 12.5 mg/kg/injection, schedule: Q01DX001 (ip), vehicle: Klucel (hydroxypropylcellulose) (HPC)
# [24] = dose: 25.0 mg/kg/injection, schedule: Q01DX001 (ip), vehicle: Klucel (hydroxypropylcellulose) (HPC)
smiles,measurement,setting,value
O=C1CCSC(=S)N1c1ccc(Cl)c([N+](=O)[O-])c1,T/C,[1],87 % of control
same,T/C,"dose: 25.0 mg/kg/injection, schedule: Q01DX009 (ip), vehicle: saline",97 % of control
same,T/C,[2],88 % of control
same,T/C,[3],104 % of control
same,T/C,[4],103 % of control
same,T/C,[5],98 % of control
same,T/C,[6],97 % of control
same,T/C,[7],109 % of control
same,T/C,"dose: 200.0 mg/kg/injection, schedule: Q01DX009 (ip), vehicle: saline with Tween-80",115 % of control
same,T/C,[8],97 % of control
CN(C)c1nc(OC2C(C(O)CO)OC3OC(C)(C)OC32)nc(N(C)C)n1 (configuration not stated),T/C,[9],105 % of control
same,T/C,"dose: 200.0 mg/kg/injection, schedule: Q04DX003 (ip), vehicle: saline with Tween-80",95 % of control
same,T/C,"dose: 400.0 mg/kg/injection, schedule: Q04DX003 (ip), vehicle: saline with Tween-80",92 % of control
Cc1c(C)c2c(c3c1OC(C)(C)CC3)CCC(C)(C)O2,T/C,[4],88 % of control
same,T/C,[7],101 % of control
same,T/C,"dose: 200.0 mg/kg/injection, schedule: Q01DX009 (ip), vehicle: suspension in saline",100 % of control
NC(=S)c1ccc(C=Nc2ccc(Cl)cc2)cc1,T/C,"dose: 50.0 mg/kg/injection, schedule: Q01DX001 (ip), vehicle: other",102 % of control
same,T/C,"dose: 100.0 mg/kg/injection, schedule: Q01DX001 (ip), vehicle: other",98 % of control
CC(=O)c1ccc(OCc2ccccc2)cc1OCc1ccccc1,T/C,[3],97 % of control
same,T/C,[6],100 % of control
same,T/C,[8],98 % of control
Cn1c(=O)[nH]c(N)c(NC=O)c1=O,T/C,[10],103 % of control
same,T/C,[11],101 % of control
same,T/C,[12],101 % of control
O=C(O)c1c(-c2ccccc2)nn(-c2ccccc2)c1-c1ccccc1,T/C,"dose: 50.0 mg/kg/injection, schedule: Q04DX003 (ip), vehicle: suspension in saline",108 % of control
same,T/C,"dose: 100.0 mg/kg/injection, schedule: Q04DX003 (ip), vehicle: suspension in saline",106 % of control
same,T/C,"dose: 200.0 mg/kg/injection, schedule: Q04DX003 (ip), vehicle: suspension in saline",102 % of control
COC(=O)CCCc1ccc(OC)c(OC)c1,T/C,[13],100 % of control
same,T/C,[1],92 % of control
same,T/C,[2],95 % of control
same,T/C,[5],89 % of control
CC(/C=C/C1OC(=O)C=CC1C)=C\C(C)C/C=C/C(C)=C/C(CO)C(=O)C(C)C(O)C(C)C/C(C)=C/C(=O)O (configuration not stated),T/C,"dose: 25.0 micrograms/kg/injection, schedule: Q01DX005 (ip), vehicle: other",119 % of control
same,T/C,"dose: 100.0 micrograms/kg/injection, schedule: Q01DX005 (ip), vehicle: other",153 % of control
Cc1ccc(S(=O)(=O)OCCN(CCOS(=O)(=O)c2ccc(C)cc2)c2ccc(N=O)cc2)cc1,T/C,[14],163 % of control
same,T/C,[15],168 % of control
same,T/C,"dose: 100.0 mg/kg/injection, schedule: Q04DX003 (ip), vehicle: saline sonified",122 % of control
same,T/C,[9],177 % of control
O=C1C(=O)N(c2ccccc2)C(=O)N1c1ccccc1,T/C,"dose: 6.25 mg/kg/injection, schedule: Q01DX009 (ip), vehicle: saline with Tween-80",96 % of control
same,T/C,[13],105 % of control
same,T/C,[1],104 % of control and 89 % of control
same,T/C,[5],101 % of control and 86 % of control
COC(=O)CCC(=O)Nc1cc(Cl)c(Cl)cc1Cl,T/C,"dose: 60.0 mg/kg/injection, schedule: Q01DX005 (ip), vehicle: saline with Tween-80",100 % of control
same,T/C,"dose: 120.0 mg/kg/injection, schedule: Q01DX005 (ip), vehicle: saline with Tween-80",93 % of control
same,T/C,"dose: 240.0 mg/kg/injection, schedule: Q01DX005 (ip), vehicle: saline with Tween-80",91 % of control
O=C1NC(=O)C2(CCCc3ccc(N(CCCl)CCCl)cc32)N1 (configuration not stated),T/C,"dose: 0.38 mg/kg/injection, schedule: Q04DX003 (ip), vehicle: saline with Tween-80",108 % of control
same,T/C,"dose: 0.75 mg/kg/injection, schedule: Q04DX003 (ip), vehicle: saline with Tween-80",104 % of control
same,T/C,"dose: 1.5 mg/kg/injection, schedule: Q04DX003 (ip), vehicle: saline with Tween-80",104 % of control
same,T/C,[13],159 % of control
same,T/C,[1],172 % of control
same,T/C,[15],181 % of control
same,T/C,[9],181 % of control
same,T/C,"dose: 132.0 mg/kg/injection, schedule: Q04DX003 (ip), vehicle: saline with Tween-80",177 % of control
O=c1[nH]c2c([N+](=O)[O-])cc(Cl)cc2nc1/C=C(\O)c1cccnc1,T/C,[16],99 % of control
same,T/C,[17],99 % of control
same,T/C,[18],111 % of control
COc1c(C#N)c2c(c(OC)c1OC)-c1ccc(OC)c(=O)cc1[C@@H](NC(C)=O)CC2,T/C,[19],113 % of control
CCN(CCO)CCc1cccc2ccccc12,T/C,[20],104 % of control
same,T/C,[21],99 % of control
CS/C(=C\c1sc2ccccc2[n+]1C)SCC(=O)c1ccccc1,T/C,"dose: 25.0 mg/kg/injection, schedule: Q04DX002 (ip), vehicle: saline with Tween-80",100 % of control
same,T/C,"dose: 50.0 mg/kg/injection, schedule: Q04DX002 (ip), vehicle: saline with Tween-80",104 % of control
same,T/C,"dose: 100.0 mg/kg/injection, schedule: Q04DX002 (ip), vehicle: saline with Tween-80",106 % of control
COc1ccc(C(=O)CC(=O)C(=O)Nc2ccc(Cl)cc2)cc1,T/C,[10],103 % of control
same,T/C,[11],101 % of control
same,T/C,[12],109 % of control
CNP1(NC)=N[P@@](NC)(N2CC2)=NP(NC)(N2CC2)=N1 (some centres not stated),T/C,"dose: 1.87 mg/kg/injection, schedule: Q01DX005 (ip), vehicle: saline",102 % of control
same,T/C,"dose: 7.5 mg/kg/injection, schedule: Q01DX005 (ip), vehicle: saline",158 % of control and 185 % of control
same,T/C,"dose: 15.0 mg/kg/injection, schedule: Q01DX005 (ip), vehicle: saline",171 % of control and 227 % of control
CCO/C=C1\N=C(C(O)(c2ccc(Cl)cc2)c2ccc(Cl)cc2)OC1=O,T/C,[16],95 % of control
same,T/C,[17],92 % of control
same,T/C,[18],98 % of control
CCN(CC)CCCC(C)Nc1cc(/C=C/c2ccc(Cl)cc2)nc2cc(N(C)C)ccc12 (configuration not stated),T/C,[19],107 % of control
same,T/C,"dose: 6.25 mg/kg/injection, schedule: Q01DX009 (ip), vehicle: Klucel (hydroxypropylcellulose) (HPC)",110 % of control
same,T/C,"dose: 12.5 mg/kg/injection, schedule: Q01DX009 (ip), vehicle: Klucel (hydroxypropylcellulose) (HPC)",98 % of control and 102 % of control
O=c1c2sc3ccccc3c2ncn1CN1CCOCC1,T/C,[20],112 % of control
same,T/C,[21],121 % of control
same,T/C,[22],118 % of control
O=[N+]([O-])c1nncs1,T/C,"dose: 6.25 mg/kg/injection, schedule: Q04DX003 (ip), vehicle: saline with Tween-80",105 % of control
same,T/C,"dose: 12.5 mg/kg/injection, schedule: Q04DX003 (ip), vehicle: saline with Tween-80",100 % of control
same,T/C,[14],110 % of control
C[N+](C)(C)N=P(O)(N[N+](C)(C)C)c1ccccc1 (configuration not stated),T/C,"dose: 60.0 mg/kg/injection, schedule: Q01DX005 (ip), vehicle: saline",104 % of control
same,T/C,"dose: 120.0 mg/kg/injection, schedule: Q01DX005 (ip), vehicle: saline",104 % of control
same,T/C,"dose: 240.0 mg/kg/injection, schedule: Q01DX005 (ip), vehicle: saline",103 % of control
CC(=O)N1N=C(C)C2ON=C(c3ccc(Cl)cc3)P21 (configuration not stated),T/C,[20],107 % of control
same,T/C,[21],100 % of control
same,T/C,[22],100 % of control
[CH3][Sn]1([CH3])[O]C(=O)C(=O)[O]1,T/C,"dose: 6.25 mg/kg/injection, schedule: Q01DX001 (ip), vehicle: Klucel (hydroxypropylcellulose) (HPC)",105 % of control
same,T/C,[23],102 % of control
same,T/C,[24],101 % of control
CC(C)OSc1ccccc1,T/C,[23],113 % of control
same,T/C,[24],113 % of control
same,T/C,"dose: 50.0 mg/kg/injection, schedule: Q01DX001 (ip), vehicle: Klucel (hydroxypropylcellulose) (HPC)",102 % of control
same,T/C,"dose: 100.0 mg/kg/injection, schedule: Q01DX001 (ip), vehicle: Klucel (hydroxypropylcellulose) (HPC)",103 % of control and 107 % of control and 97 % of control
